Experimental data as given in patent publication US20220306695A1, “COMPSTATIN ANALOGUES AND THEIR MEDICAL USES” (priority 2019, published 2022).
Read-outs that look alike come from different tables or passages of the source. Starred links: 1 amine or outer side, 2 acyl side, 3 side chain; linkers in the order of their positions; H or OH if unused. Positions of bridges follow the written chain, without caps; N, C: chain ends. Non-standard residues stand in square brackets, D forms with d. Residues, ends and D or L forms follow the SMILES beside them. Groups on a side chain read outwards from the residue. *: point of attachment. Trp(1-Me) = Cn1cc(C[C@H](N)C(=O)O)c2ccccc21; Abu(4-yl) = O=C([C@H](CC[*:3])N[*:1])[*:2]; C18 diacid = O=C(O)CCCCCCCCCCCCCCCCC(=O)*; γGlu = O=C(O)[C@H](CCC(=O)[*:2])N[*:1]; AEEA = NCCOCCOCC(=O)O; Sar = CNCC(=O)O

Key:
in vivo = assay: in vivo; design: species or system Cynomolgus monkeys (Macaca fascicularis); details: male, cynomolgus monkey, sc, 1840 nmol/kg, t½
Protocol: Healthy male Cynomolgus monkeys (Macaca fascicularis) received single subcutaneous administrations of each test substance. Compounds were formulated in 20 mM phosphate adjusted with NaOH to pH 7.5 and mannitol for isotonicity and dosed at 1840 nmol/kg. Blood was collected from a femoral vein from each animal at the following times: Pre-dose, 1, 2, 4, 8, 24, 48, 72, 96 and 120 h (10 sampling times). Blood was collected into serum separation tubes and allowed to clot at room temperature. The tubes were centrifuged and resulting serum was aliquoted and snap-frozen over dry-ice and stored at nominally −80° C. until analysis. All NHP studies were performed in accordance with animal welfare laws and regulations, including approval of the study by a local ethical review process.
In order to assess pharmacokinetic half-life (t %/), serum samples isolated from non-human primates at specific time points after dosing were analysed for total drug compound after sample preparation by solid phase extraction (SPE) and liquid chromatography mass spectrometry (LC-MS/MS) using analogue internal standard. Single measurement of serum concentrations were used for calculation of the pharmacokinetic parameters using the non-compartmental approach in Phoenix WinNonlin 6.3. Plasma terminal elimination half-life (ty) was determined as In(2)/λz where λz is the magnitude of the slope of the log linear regression of the log concentration versus time profile during the terminal phase.

[1] = test system: classical complement pathway; assay: In vitro haemolysis assay (inhibition of classical complement pathway); format: cell-based, human
How it was run: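 Serially diluted compound (9 points) was preincubated 15 min at room temperature with diluted human serum, titrated per batch to give 70-90% maximal haemolysis, in Tris/casein buffer pH 7.4 with Mg2+/Ca2+. Antibody-sensitized sheep erythrocytes were then added for 30 min at 37° C, and the reaction was stopped with EDTA. Haemolysis was read at A405, with IC50 from 4PL fit.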

Human C3 = molecular target: T1, Human C3 (Homo sapiens, UniProt P01024); assay: Affinity measurement by surface plasmon resonance (SPR) with immobilized C3; format: binding; details: Table 7; immobilized C3, 25° C., pH 7.4
T1 construct: purchased Complement tech A1 13c (so in the source)
Protocol: Surface plasmon resonance (SPR) was used to characterize peptides with respect to their binding affinity (Kd) for C3. Human C3 (Complement tech cat #A1 13c) was immobilised on individual flow cells of CM5 sensor chips (GE Healthcare) using standard amine coupling to a density of approximately 3000 resonance units (RU) in a buffer consisting of 10 mM phosphate pH 7.4, 150 mM NaCl, 0.05% Tween20. For interaction experiments a multi-cycle experiment approach was used and performed using either a Biacore™ T200 or Biacore™ X100 instrument (GE Healthcare) at 25° C. Peptides were injected in increasing concentration series (5-8 different concentrations) for 60-120 s at a flow rate of 30 μL/min in a buffer consisting of 10 mM Tris buffer at pH 7.4, with 150 mM NaCl and 0.05% Tween20. This was followed by a dissociation period for up to 10 min. […] Sensorgrams were double-referenced (reference surface, blanks) prior to analysis of the kinetic profiles by globally fitting data to a 1:1 Langmuir binding model to obtain association and dissociation rates for calculation of the equilibrium dissociation constant Kd. Each peptide was tested at in at least 2 independent experiments.

[2] = Solubility test at 10 mg/mL (visual inspection and light scattering); format: physicochemical; details: for Solubility, Condition 1 Acetate pH 4: 10 mg/mL compound in 100 mM acetate pH 4; for Solubility, Condition 2 Acetate pH 5: 10 mg/mL compound in 100 mM acetate pH 5; for Solubility, Condition 3 Phosphate pH 6: 10 mg/mL compound in 100 mM phosphate pH 6; for Solubility, Condition 4 Phosphate pH 7: 10 mg/mL compound in 100 mM phosphate pH 7; for Solubility, Condition 5 Phosphate pH 7.5: 10 mg/mL compound in 100 mM phosphate pH 7.5
[3] = Table 3, human serum, sensitized sheep red blood cells, read-out: IC50[nM], in vitro analysis of inhibition of hemolysis
[4] = Table 4, valine 3 versus isoleucine 3 pairs, read-out: CP hemolysis IC50

half-life (in vivo) [h]	Kd (Human C3) [µM]	Solubility by visual inspection and absorbance, condition 1, 2 and 3 ([2]; 10 mg/mL, acetate pH 4.0, acetate pH 5.0, phosphate pH 6.0, all exceeding 0.1 AU threshold)	Solubility by visual inspection and absorbance, condition 4 and 5 ([2]; 10 mg/mL, phosphate pH 7 and phosphate pH 7.5)	SMILES	IC50 [1, 3] [nM]	IC50 [1, 4] [nM]	Solubility, Condition 1 Acetate pH 4 [2]	Solubility, Condition 2 Acetate pH 5 [2]	Solubility, Condition 3 Phosphate pH 6 [2]	Solubility, Condition 4 Phosphate pH 7 [2]	Solubility, Condition 5 Phosphate pH 7.5 [2]	IC50 ([1]; Table 5, different residues at position 3 of Ac-IC(1)XWQDWGEHRC(1)T-NH2, read-out: IC50, CP hemolysis) [nM]
127				CC[C@H](C)[C@@H]1NC(=O)[C@@H](NC(=O)[C@H](Cc2ccc(O)cc2)NC(=O)[C@H](CCC(=O)O)NC(=O)[C@H](CO)NC(C)=O)CSSC[C@@H](C(=O)N(C)CC(=O)N[C@@H](CCC(=O)O)C(=O)NCC(=O)N[C@@H](C)C(=O)N[C@@H](CCCCNC(=O)COCCOCCNC(=O)CC[C@H](NC(=O)COCCOCCNC(=O)CNC(=O)CC[C@H](NC(=O)CCCCCCCCCCCCCCCCC(=O)O)C(=O)O)C(=O)O)C(N)=O)NC(=O)[C@H](CCCNC(=N)N)NC(=O)[C@H](Cc2c[nH]cn2)NC(=O)[C@H](CCC(=O)O)NC(=O)CNC(=O)[C@H](Cc2c[nH]c3ccccc23)NC(=O)[C@H](CCC(=O)O)NC(=O)[C@H](CCC(N)=O)NC(=O)[C@H](Cc2cn(C)c3ccccc23)NC1=O [Compound 122] (Ac-SEYCI[Trp(1-Me)]QEWGEHRC[Sar]EGAK([AEEA-γGlu-AEEA-Gly-γGlu-C18 diacid])-NH2; disulfide 4-14)	< 500							
	0.014			CC[C@H](C)[C@H](NC(C)=O)C(=O)N[C@H]1CSSC[C@@H](C(=O)N[C@H](C(=O)NCC(=O)N[C@@H](C)C(=O)N[C@@H](CCC(=O)O)C(=O)N[C@@H](CO)C(N)=O)[C@@H](C)O)NC(=O)[C@H](CCCNC(=N)N)NC(=O)[C@H](Cc2c[nH]cn2)NC(=O)[C@H](CCC(=O)O)NC(=O)CNC(=O)[C@H](Cc2c[nH]c3ccccc23)NC(=O)[C@H](CC(=O)O)NC(=O)[C@H](CCC(N)=O)NC(=O)[C@H](Cc2c[nH]c3ccccc23)NC(=O)[C@H]([C@@H](C)CC)NC1=O [Compound 15] (Ac-ICIWQDWGEHRCTGAES-NH2; disulfide 2-12)	< 100	47	+ (denotes solubility at the given condition, as determined by UV absorbance being less than 0.1 AU at 340 nm and the sample being clear when manually inspected.)	− (denotes lack of solubility at the given condition, as UV absorbance at 340 nm exceeds 0.1 AU and/or it is visibly turbid or contains particles.)	− (denotes lack of solubility at the given condition, as UV absorbance at 340 nm exceeds 0.1 AU and/or it is visibly turbid or contains particles.)	+ (denotes solubility at the given condition, as determined by UV absorbance being less than 0.1 AU at 340 nm and the sample being clear when manually inspected.)	+ (denotes solubility at the given condition, as determined by UV absorbance being less than 0.1 AU at 340 nm and the sample being clear when manually inspected.)	
	0.0014			CC[C@H](C)[C@@H]1NC(=O)[C@@H](NC(=O)[C@H](Cc2ccccc2)NC(=O)[C@H](C)NC(=O)[C@H](CO)NC(=O)CNC(=O)[C@H](CCC(=O)O)NC(C)=O)CSSC[C@@H](C(=O)N(C)CC(=O)N[C@@H](CCC(=O)O)C(N)=O)NC(=O)[C@H](CCCNC(=N)N)NC(=O)[C@H](Cc2c[nH]cn2)NC(=O)[C@H](CCC(=O)O)NC(=O)CNC(=O)[C@H](Cc2c[nH]c3ccccc23)NC(=O)[C@H](CC(=O)O)NC(=O)[C@H](CCC(N)=O)NC(=O)[C@H](Cc2cn(C)c3ccccc23)NC1=O [Compound 53] (Ac-EGSAFCI[Trp(1-Me)]QDWGEHRC[Sar]E-NH2; disulfide 6-16)	< 100		− (denotes lack of solubility at the given condition, as UV absorbance at 340 nm exceeds 0.1 AU and/or it is visibly turbid or contains particles.)	− (denotes lack of solubility at the given condition, as UV absorbance at 340 nm exceeds 0.1 AU and/or it is visibly turbid or contains particles.)	+ (denotes solubility at the given condition, as determined by UV absorbance being less than 0.1 AU at 340 nm and the sample being clear when manually inspected.)	+ (denotes solubility at the given condition, as determined by UV absorbance being less than 0.1 AU at 340 nm and the sample being clear when manually inspected.)	+ (denotes solubility at the given condition, as determined by UV absorbance being less than 0.1 AU at 340 nm and the sample being clear when manually inspected.)	
	0.016			CC[C@H](C)[C@H](NC(C)=O)C(=O)N[C@H]1CSSC[C@@H](C(=O)N[C@H](C(N)=O)[C@@H](C)O)NC(=O)[C@H](CCCNC(=N)N)NC(=O)[C@H](Cc2c[nH]cn2)NC(=O)[C@H](CCC(=O)O)NC(=O)CNC(=O)[C@H](Cc2c[nH]c3ccccc23)NC(=O)[C@H](CC(=O)O)NC(=O)[C@H](CCC(N)=O)NC(=O)[C@H](Cc2c[nH]c3ccccc23)NC(=O)[C@H]([C@@H](C)CC)NC1=O [Compound 2] (Ac-ICIWQDWGEHRCT-NH2; disulfide 2-12)	< 100	94						< 100
	0.028	cloudy	good conditions for solubility	CC[C@H](C)[C@H](NC(C)=O)C(=O)N[C@H]1CSSC[C@@H](C(=O)N[C@H](C(=O)N[C@@H](CCC(=O)O)C(=O)NCC(=O)N[C@@H](CCC(=O)O)C(N)=O)[C@@H](C)O)NC(=O)[C@H](CCCNC(=N)N)NC(=O)[C@H](Cc2c[nH]cn2)NC(=O)[C@H](CCC(=O)O)NC(=O)CNC(=O)[C@H](Cc2c[nH]c3ccccc23)NC(=O)[C@H](CC(=O)O)NC(=O)[C@H](CCC(N)=O)NC(=O)[C@H](Cc2c[nH]c3ccccc23)NC(=O)[C@H]([C@@H](C)CC)NC1=O [Compound 24] (Ac-ICIWQDWGEHRCTEGE-NH2; disulfide 2-12)	< 100	90	− (denotes lack of solubility at the given condition, as UV absorbance at 340 nm exceeds 0.1 AU and/or it is visibly turbid or contains particles.)	− (denotes lack of solubility at the given condition, as UV absorbance at 340 nm exceeds 0.1 AU and/or it is visibly turbid or contains particles.)	− (denotes lack of solubility at the given condition, as UV absorbance at 340 nm exceeds 0.1 AU and/or it is visibly turbid or contains particles.)	+ (denotes solubility at the given condition, as determined by UV absorbance being less than 0.1 AU at 340 nm and the sample being clear when manually inspected.)	+ (denotes solubility at the given condition, as determined by UV absorbance being less than 0.1 AU at 340 nm and the sample being clear when manually inspected.)	
	0.0065			CC[C@H](C)[C@@H]1NC(=O)[C@@H](NC(=O)[C@H](Cc2ccccc2)NC(=O)[C@H](CCC(=O)O)NC(=O)[C@H](CO)NC(C)=O)CCSC[C@@H](C(=O)N(C)CC(=O)N[C@@H](CCC(=O)O)C(=O)NCC(=O)N[C@@H](CCC(=O)O)C(=O)NCCOCCOCC(=O)N[C@@H](CCC(=O)O)C(=O)N[C@@H](CO)C(=O)N[C@@H](CCCCNC(=O)CC[C@H](NC(=O)CNC(=O)CC[C@H](NC(=O)CCCCCCCCCCCCCCCCC(=O)O)C(=O)O)C(=O)O)C(N)=O)NC(=O)[C@H](CCCNC(=N)N)NC(=O)[C@H](Cc2c[nH]cn2)NC(=O)[C@H](CCC(=O)O)NC(=O)CN(C)C(=O)[C@H](Cc2c[nH]c3ccccc23)NC(=O)[C@H](CC(=O)O)NC(=O)[C@H](CCC(N)=O)NC(=O)[C@H](Cc2cn(C)c3ccccc23)NC1=O [Compound 166, Ac-SEFhC(1)I[1-Me-Trp]QDW[Sar]EHRA(1)[Sar]EGE[Peg3]ES-K([17-carboxy-heptadecanoyl][γGlu]G[γGlu])-NH2] (Ac-SEF[Abu(4-yl)]I[Trp(1-Me)]QDW[Sar]EHRC[Sar]EGE[AEEA]ESK([γGlu-Gly-γGlu-C18 diacid])-NH2; thioether 4-14)	< 100							
